According to EP2768830B1, “APOPTOSIS-INDUCING AGENTS FOR THE TREATMENT OF CANCER AND IMMUNE AND AUTOIMMUNE DISEASES” (AbbVie Inc., priority 2011, dated 2013):
Like-named read-outs stand apart in the source and are kept apart here.

Columns and labels:
GST-Bcl-xL = GST-Bcl-xL (Homo sapiens, UniProt Q07817); conditions: read-out: TR-FRET binding Bcl-xL Ki
[1] = system: mouse FL5.12 cells transfected with Bcl-XL; test: FL5.12 cellular assay (cell viability, CellTiter-Glo); type: cell-based; conditions: FL5.12 cells transfected with Bcl-XL, IL-3-depleted, 3% FBS assay media, 24 hours, CellTiter-Glo, read-out: FL5.12 Bcl-xL, - IL3, EC 50;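 further: each EC50 determination derived from duplicate measurements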

Sequence of GST-Bcl-xL (Q07817 whole entry): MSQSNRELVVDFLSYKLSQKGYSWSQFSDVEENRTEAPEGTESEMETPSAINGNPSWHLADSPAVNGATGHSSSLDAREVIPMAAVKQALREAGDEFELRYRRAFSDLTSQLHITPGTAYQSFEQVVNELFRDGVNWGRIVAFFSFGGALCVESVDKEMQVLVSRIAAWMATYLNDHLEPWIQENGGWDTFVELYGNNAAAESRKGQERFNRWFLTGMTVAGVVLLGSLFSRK

SMILES	Ki (GST-Bcl-xL)	EC50 ([1]; Mus musculus)	EC50 [1]
O=Cc1cccc(Cn2cc(-c3ccc(N4CCc5cccc(C(=O)Nc6nc7ccccc7s6)c5C4)nc3C(=O)O)cn2)c1 [Example 64, 6-[8-(1,3-benzothiazol-2-ylcarbamoyl)-3,4-dihydroisoquinolin-2(1H)-yl]-3-[1-(3-formylbenzyl)-1H-pyrazol-4-yl]pyridine-2-carboxylic acid]	0.061 µM	> 1 µM	
O=C(Nc1nc2ccccc2s1)c1cccc2c1CN(c1ccc(-c3cccc(OC4CCCCC4)c3Cl)c(C(=O)O)n1)CC2 [Example 117, 6-[8-(1,3-benzothiazol-2-ylcarbamoyl)-3,4-dihydroisoquinolin-2(1H)-yl]-3-[2-chloro-3-(cyclohexyloxy)phenyl]pyridine-2-carboxylic acid]	< 0.0001 µM	0.131 µM	
O=C(Nc1nc2ccccc2s1)c1cccc2c1CN(c1ccc(-c3cnn(Cc4cccnc4)c3)c(C(=O)O)n1)CC2 [Example 3, 6-[8-(1,3-benzothiazol-2-ylcarbamoyl)-3,4-dihydroisoquinolin-2(1H)-yl]-3-[1-(pyridin-3-ylmethyl)-1H-pyrazol-4-yl]pyridine-2-carboxylic acid]	0.258 µM		> 1 µM
O=C(Nc1nc2ccccc2s1)c1cccc2c1CN(c1ccc(-c3cnn(Cc4ccccc4N4CCOCC4)c3)c(C(=O)O)n1)CC2 [Example 76, 6-[8-(1,3-benzothiazol-2-ylcarbamoyl)-3,4-dihydroisoquinolin-2(1H)-yl]-3-{1-[2-(morpholin-4-yl)benzyl]-1H-pyrazol-4-yl}pyridine-2-carboxylic acid]	0.029 µM	> 1 µM	
O=C(Nc1nc2ccccc2s1)c1cccc2c1CN(c1ccc(-c3cnn(CC4CCCCO4)c3)c(C(=O)O)n1)CC2 (centres unmarked) [Example 149, 6-[8-(1,3-benzothiazol-2-ylcarbamoyl)-3,4-dihydroisoquinolin-2(1H)-yl]-3-[1-(tetrahydro-2H-pyran-2-ylmethyl)-1H-pyrazol-4-yl]pyridine-2-carboxylic acid]		0.986 µM	
CN(c1nccc(-c2ccc(N3CCc4cccc(C(=O)Nc5nc6ccccc6s5)c4C3)nc2C(=O)O)c1C#N)C1CCCCC1 [Example 164, 6-[8-(1,3-benzothiazol-2-ylcarbamoyl)-3,4-dihydroisoquinolin-2(1H)-yl]-3'-cyano-2'-[cyclohexyl(methyl)amino]-3,4'-bipyridine-2-carboxylic acid]		0.308 µM	
Cc1c(-c2ccc(N3CCc4cccc(C(=O)Nc5nc6ccccc6s5)c4C3)nc2C(=O)O)cnn1CC1CCCCC1 [Example 43, 6-[8-(1,3-benzothiazol-2-ylcarbamoyl)-3,4-dihydroisoquinolin-2(1H)-yl]-3-[1-(cyclohexylmethyl)-5-methyl-1H-pyrazol-4-yl]pyridine-2-carboxylic acid]		0.004 µM	
Cc1c(Oc2ccccc2)cccc1-c1ccc(N2CCc3cccc(C(=O)Nc4nc5ccccc5s4)c3C2)nc1C(=O)O [Example 110, 6-[8-(1,3-benzothiazol-2-ylcarbamoyl)-3,4-dihydroisoquinolin-2(1H)-yl]-3-(2-methyl-3-phenoxyphenyl)pyridine-2-carboxylic acid]		0.09 µM	
Cc1c(-c2ccc(N3CCc4cccc(C(=O)Nc5nc6ccccc6s5)c4C3)nc2C(=O)O)cccc1N(C)C1CCCC(C)(C)C1 (centres unmarked) [Example 159, 6-[8-(1,3-benzothiazol-2-ylcarbamoyl)-3,4-dihydroisoquinolin-2(1H)-yl]-3-{3-[(3,3-dimethylcyclohexyl)(methyl)amino]-2-methylphenyl}pyridine-2-carboxylic acid]		0.031 µM	
O=C(Nc1nc2ccccc2s1)c1cccc2c1CN(c1ccc(-c3ccn(Cc4ccccc4)c3)c(C(=O)O)n1)CC2 [Example 125, 6-[8-(1,3-benzothiazol-2-ylcarbamoyl)-3,4-dihydroisoquinolin-2(1H)-yl]-3-(1-benzyl-1H-pyrrol-3-yl)pyridine-2-carboxylic acid]			0.527 µM
